From US6921764B2, “Thieno-pyrimidin-4-one AMPA antagonists” (Pfizer Inc., priority 1997, dated 2005)

Columns and labels:
[1] = system: rat global ischemia models; conditions: reported in literature; cited from earlier work
[2] = system: global and focal ischemic damage; conditions: focal and global ischemia models; reported in literature; cited from earlier work

Compound | melting point [°C] | also measured
Cl.O=c1c2sccc2nc(CNc2cccc(CN3CCCC3)c2)n1-c1ccccc1Cl | 148 to 151 | –
O=c1c2cc(F)ccc2nc(CNc2cccc(CN3CCCC3)c2)n1-c1ccccc1Cl [Example 12, 3-(2-Chloro-phenyl)-6-fluoro-2-[(3-pyrrolidin-1-ylmethyl-phenylamino)-methyl]-3H-quinazolin-4-one] | 105 to 110 | –
O=c1c2cc(F)ccc2nc(CNc2ccccc2F)n1-c1cccnc1Cl | 180 to 182 | –
N#Cc1cccnc1NCc1nc2ccc(F)cc2c(=O)n1-c1ccccc1Cl | 145 to 150 | –
O=c1c2cc(F)ccc2nc(CNc2ncccn2)n1-c1ccccc1Cl | 182 to 185 | –
CC1=NN=C(c2ccc(N)cc2)c2cc3c(cc2C1)OCO3 [GKYI 52466] | – | neuroprotection in rat global ischemia models [1]: effective neuroprotective agent
NS(=O)(=O)c1cccc2c1c([N+](=O)[O-])cc1nc(O)c(O)nc12 [NBOX, 2,3-dihydroxy-6-nitro-7-sulfamoylbenzo[f-]quinoxaline] | – | prevention of global and focal ischemic damage [2]: effective in preventing global and focal ischemic damage
O=c1c2cc(F)ccc2nc(CNCc2ccccc2F)n1-c1ccccc1Cl | 140 | –
Cc1cccc(NCc2nc3ccc(F)cc3c(=O)n2-c2cccnc2Cl)n1 | 190 to 195 | –
N#Cc1cccc(NCc2nc3ccc(F)cc3c(=O)n2-c2ccccc2Cl)c1 | 225 to 228 | –
N#Cc1ccccc1NCc1nc2ccc(F)cc2c(=O)n1-c1cccnc1Cl | 183 to 187 | –
O=c1c2sccc2nc(CNc2ccccc2F)n1-c1ccccc1Cl [Example 17, 3-(2-Chloro-phenyl)-2-[(2-fluoro-phenylamino)-methyl]-3H-thieno[3,2-d]pyrimidin-4-one] | 175 to 176 | –
Cl.O=c1c2cc(F)ccc2nc(CNc2ccccn2)n1-c1ccccc1Cl | 90 to 100 | –
